Test results taken from ChEMBL document CHEMBL4265943, “Design and synthesis of potent dual inhibitors of JAK2 and HDAC based on fusing the pharmacophores of XL019 and vorinostat” (Eur J Med Chem, 2018).

Experiments:
[1] = tested on: PC-3; assay: Antiproliferative activity against human PC3 cells after 72 hrs by MTT assay; format: functional, cell-based; conditions: PC-3, 72 h
[2] = tested on: MDA-MB-231; assay: Antiproliferative activity against human MDA-MB-231 cells after 72 hrs by MTT assay; format: functional, cell-based; conditions: MDA-MB-231, 72 h
[3] = tested on: MCF7; assay: Antiproliferative activity against human MCF7 cells after 72 hrs by MTT assay; format: functional, cell-based; conditions: MCF7, 72 h
[4] = Antiproliferative activity against human AC10 cells after 72 hrs by MTT assay; format: cell-based
[5] = biological target: T1, Protein deacetylase HDAC6 (Homo sapiens, UniProt Q9UBN7); assay: Inhibition of HDAC6 (unknown origin) using Arg-His-Lys-Lys(Ac) as substrate preincubated with enzyme followed by substrate addition for 2 hrs and measured for 1.5 hrs at 15 mins time interval by fluorescence assay
T1 sequence (Q9UBN7 whole entry): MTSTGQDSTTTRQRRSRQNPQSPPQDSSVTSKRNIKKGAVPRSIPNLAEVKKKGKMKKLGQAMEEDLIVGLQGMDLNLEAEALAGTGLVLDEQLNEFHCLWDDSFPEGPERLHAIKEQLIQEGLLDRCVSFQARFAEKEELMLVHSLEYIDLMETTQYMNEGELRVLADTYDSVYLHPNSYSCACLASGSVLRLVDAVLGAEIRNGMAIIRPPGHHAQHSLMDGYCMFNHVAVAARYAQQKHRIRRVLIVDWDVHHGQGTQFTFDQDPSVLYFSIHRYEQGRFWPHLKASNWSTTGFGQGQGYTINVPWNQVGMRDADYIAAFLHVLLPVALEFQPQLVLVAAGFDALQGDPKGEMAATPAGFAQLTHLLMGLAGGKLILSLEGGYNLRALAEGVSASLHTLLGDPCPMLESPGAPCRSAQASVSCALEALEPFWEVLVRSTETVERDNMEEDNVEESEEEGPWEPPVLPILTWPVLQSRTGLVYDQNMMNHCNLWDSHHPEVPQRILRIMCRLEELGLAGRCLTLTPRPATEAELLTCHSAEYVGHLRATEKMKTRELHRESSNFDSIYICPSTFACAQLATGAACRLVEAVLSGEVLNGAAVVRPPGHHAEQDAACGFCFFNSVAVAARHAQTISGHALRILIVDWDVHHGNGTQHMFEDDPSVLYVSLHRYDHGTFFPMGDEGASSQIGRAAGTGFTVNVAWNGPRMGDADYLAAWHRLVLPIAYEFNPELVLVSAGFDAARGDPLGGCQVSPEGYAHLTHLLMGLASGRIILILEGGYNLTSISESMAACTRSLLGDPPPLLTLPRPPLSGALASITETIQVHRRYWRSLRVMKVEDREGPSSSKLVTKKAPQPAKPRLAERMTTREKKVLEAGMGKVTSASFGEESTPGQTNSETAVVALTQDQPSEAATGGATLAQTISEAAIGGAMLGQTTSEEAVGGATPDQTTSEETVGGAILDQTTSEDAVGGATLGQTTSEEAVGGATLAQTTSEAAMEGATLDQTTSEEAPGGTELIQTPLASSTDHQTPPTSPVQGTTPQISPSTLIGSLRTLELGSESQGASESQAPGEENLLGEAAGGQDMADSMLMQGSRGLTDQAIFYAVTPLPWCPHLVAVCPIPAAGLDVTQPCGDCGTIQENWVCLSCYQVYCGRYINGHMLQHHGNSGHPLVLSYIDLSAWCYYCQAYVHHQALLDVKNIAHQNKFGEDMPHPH

[6] = Antiproliferative activity against mouse TAMH cells after 72 hrs by MTT assay; format: cell-based
[7] = biological target: Histone deacetylase 1 (Homo sapiens, UniProt Q13547); assay: Inhibition of HDAC1 (unknown origin) using Arg-His-Lys-Lys(Ac) as substrate preincubated with enzyme followed by substrate addition for 2 hrs and measured for 1.5 hrs at 15 mins time interval by fluorescence assay
[8] = tested on: HCT-116; assay: Antiproliferative activity against human HCT116 cells after 72 hrs by MTT assay; format: functional, cell-based; conditions: HCT-116, 72 h
[9] = biological target: Tyrosine-protein kinase JAK2 (Homo sapiens, UniProt O60674); assay: Inhibition of human JAK2 using poly(Glu:Tyr)(4:1) as substrate preincubated for 20 mins followed by [gamma33P]ATP addition measured after 120 mins by ion exchange filter paper method
[10] = Selectivity index, ratio of CC50 for human AC10 cells to IC50 for human MDA-MB-231 cells; format: toxicity; conditions: AC10 cells (CC50) and MDA-MB-231 cells (IC50)
[11] = Selectivity index, ratio of CC50 for mouse TAMH cells to IC50 for human HCT116 cells; format: toxicity; conditions: TAMH cells (CC50) and HCT116 cells (IC50)
[12] = Selectivity index, ratio of CC50 for mouse TAMH cells to IC50 for human MDA-MB-231 cells; format: toxicity; conditions: TAMH cells (CC50) and MDA-MB-231 cells (IC50)
[13] = Selectivity index, ratio of CC50 for human AC10 cells to IC50 for human PC3 cells; format: toxicity; conditions: AC10 cells (CC50) and PC3 cells (IC50)
[14] = Selectivity index, ratio of CC50 for human AC10 cells to IC50 for human HCT116 cells; format: toxicity; conditions: AC10 cells (CC50) and HCT116 cells (IC50)
[15] = Selectivity index, ratio of CC50 for mouse TAMH cells to IC50 for human PC3 cells; format: toxicity; conditions: TAMH cells (CC50) and PC3 cells (IC50)
[16] = Selectivity index, ratio of CC50 for mouse TAMH cells to IC50 for human MCF7 cells; format: toxicity; conditions: TAMH cells (CC50) and MCF7 cells (IC50)
[17] = Selectivity index, ratio of CC50 for human AC10 cells to IC50 for human MCF7 cells; format: toxicity; conditions: AC10 cells (CC50) and MCF7 cells (IC50)
[18] = tested on: HEL 92.1.7; assay: cells; format: functional, cell-based; conditions: Homo sapiens, HEL 92.1.7, 72 h
Description: Antiproliferative activity against human HEL 92.1.7 cells after 72 hrs by MTT assay

[19] = tested on: KMS-12-BM; assay: Antiproliferative activity against human KMS-12-BM cells after 72 hrs by MTT assay; format: functional, cell-based
[20] = tested on: Jurkat; assay: Antiproliferative activity against human Jurkat cells after 72 hrs by MTT assay; format: functional, cell-based
[21] = Antiproliferative activity against human XG6 cells after 72 hrs by MTT assay; format: functional, cell-based; conditions: XG6, 72 h

Sequence of Tyrosine-protein kinase JAK2 (O60674 whole entry): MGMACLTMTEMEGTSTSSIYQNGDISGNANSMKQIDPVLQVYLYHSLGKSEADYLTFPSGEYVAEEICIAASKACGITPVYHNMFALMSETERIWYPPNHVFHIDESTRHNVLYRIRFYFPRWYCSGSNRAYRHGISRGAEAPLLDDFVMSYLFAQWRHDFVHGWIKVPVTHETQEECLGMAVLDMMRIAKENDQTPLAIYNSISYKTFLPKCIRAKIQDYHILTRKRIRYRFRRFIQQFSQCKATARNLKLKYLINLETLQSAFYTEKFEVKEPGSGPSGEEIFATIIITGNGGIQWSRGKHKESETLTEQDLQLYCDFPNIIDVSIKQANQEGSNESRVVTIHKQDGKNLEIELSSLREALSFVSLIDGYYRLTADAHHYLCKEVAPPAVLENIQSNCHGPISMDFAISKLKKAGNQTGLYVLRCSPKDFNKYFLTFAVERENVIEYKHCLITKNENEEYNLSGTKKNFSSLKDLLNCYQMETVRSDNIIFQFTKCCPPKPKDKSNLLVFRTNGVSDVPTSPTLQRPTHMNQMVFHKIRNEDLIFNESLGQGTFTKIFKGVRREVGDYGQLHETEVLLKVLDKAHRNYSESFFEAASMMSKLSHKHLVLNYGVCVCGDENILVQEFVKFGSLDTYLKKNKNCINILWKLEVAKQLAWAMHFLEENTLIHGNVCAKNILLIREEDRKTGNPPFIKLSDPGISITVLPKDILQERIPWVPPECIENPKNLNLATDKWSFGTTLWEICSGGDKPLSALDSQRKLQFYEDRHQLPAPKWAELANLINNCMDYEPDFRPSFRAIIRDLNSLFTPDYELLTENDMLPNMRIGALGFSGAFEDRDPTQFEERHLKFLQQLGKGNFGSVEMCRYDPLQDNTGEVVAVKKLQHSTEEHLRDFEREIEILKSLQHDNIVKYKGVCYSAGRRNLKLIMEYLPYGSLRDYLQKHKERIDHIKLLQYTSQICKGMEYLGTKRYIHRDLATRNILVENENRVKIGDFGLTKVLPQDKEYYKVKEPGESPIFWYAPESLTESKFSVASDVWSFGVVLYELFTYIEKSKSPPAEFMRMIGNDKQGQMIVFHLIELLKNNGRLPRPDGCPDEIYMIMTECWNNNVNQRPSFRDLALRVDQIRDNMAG
Sequence of Histone deacetylase 1 (Q13547 whole entry): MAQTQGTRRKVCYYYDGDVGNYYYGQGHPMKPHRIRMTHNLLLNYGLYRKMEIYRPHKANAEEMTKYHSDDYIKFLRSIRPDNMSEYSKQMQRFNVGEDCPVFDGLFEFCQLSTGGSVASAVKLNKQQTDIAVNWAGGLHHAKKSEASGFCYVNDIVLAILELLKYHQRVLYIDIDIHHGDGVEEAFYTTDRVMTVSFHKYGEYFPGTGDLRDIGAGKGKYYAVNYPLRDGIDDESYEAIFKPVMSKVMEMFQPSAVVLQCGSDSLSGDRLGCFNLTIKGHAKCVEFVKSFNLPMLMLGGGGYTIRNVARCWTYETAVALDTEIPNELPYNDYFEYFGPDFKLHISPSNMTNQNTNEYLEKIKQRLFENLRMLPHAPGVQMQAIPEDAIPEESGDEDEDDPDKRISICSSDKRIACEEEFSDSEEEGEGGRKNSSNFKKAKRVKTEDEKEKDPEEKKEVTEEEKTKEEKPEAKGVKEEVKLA

Row | Compound | IC50 [1] [nM] | IC50 [2] [nM] | IC50 [3] [nM] | CC50 at 72 h [4] [nM] | IC50 [5] [nM] | CC50 at 72 h [6] [nM] | IC50 [7] [nM] | IC50 [8] [nM] | IC50 [9] [nM] | selectivity ratio [10] | selectivity ratio [11] | selectivity ratio [12] | selectivity ratio [13] | selectivity ratio [14] | selectivity ratio [15] | selectivity ratio [16] | selectivity ratio [17] | other results
1 | Cc1cnc(Nc2ccc(N3CCOCC3)cc2)nc1-c1ccc(NC(=O)CCCCCCC(=O)NO)cc1 | 1740 | 1230 | 2470 | 6060 | 3.7 | 7470 | 289 | 2530 | – | – | – | – | – | – | – | – | – | –
2 | COC(=O)CCCCCCOc1ccc(Nc2nccc(-c3ccc(NC(C)=O)cc3)n2)cc1 | – | – | – | – | 3150 | – | > 10000 | – | 239 | – | – | – | – | – | – | – | – | –
3 | CC(=O)Nc1ccc(-c2nc(Nc3ccc(OCCCCCC(=O)NO)cc3)ncc2C)cc1 | 2410 | 1060 | 2370 | 16900 | 3.5 | 5580 | 260 | 920 | 25.6 | 16 | 6.07 | 5.26 | 7.02 | 18.4 | 2.32 | 2.35 | 7.14 | –
4 | CN1CCN(CC(=O)Nc2ccc(-c3ccnc(Nc4cccc(OCCCCCCC(=O)NO)c4)n3)cc2)CC1 | 1150 | 650 | 1320 | 6270 | 6.8 | 5110 | 348 | 770 | 109 | 9.65 | 6.64 | 7.86 | 5.45 | 8.14 | 4.44 | 3.87 | 4.75 | –
5 | CC(=O)Nc1ccc(-c2nc(Nc3cccc(OCCCCCCC(=O)NO)c3)ncc2C)cc1 | 2760 | 1400 | 1710 | 4840 | 6.1 | 3940 | 155 | 1190 | 3.9 | 3.46 | 3.31 | 2.81 | 1.75 | 4.07 | 1.43 | 2.3 | 2.83 | –
6 | CC(CCCCCC(=O)NO)n1cc(-c2ncnc3[nH]ccc23)cn1 (stereo not drawn) | 2410 | 790 | 840 | – | – | – | – | 2320 | – | – | – | – | – | – | – | – | – | IC50 [18]: 1320 nM; IC50 [19]: 2020 nM; IC50 [20]: 470 nM; IC50 [21]: 2010 nM
7 | CC(=O)Nc1ccc(-c2ccnc(Nc3cccc(N4CCCCC4)c3)n2)cc1 | – | – | – | – | – | – | – | – | 13.8 | – | – | – | – | – | – | – | – | –
8 | Cc1cnc(Nc2ccc(N3CCN(C)CC3)cc2)nc1-c1ccc(NC(=O)CCCCCCC(=O)NO)cc1 | 1040 | 970 | 1300 | 3720 | 2.1 | 7480 | 139 | 1050 | 4.3 | 3.84 | 7.12 | 7.71 | 3.58 | 3.54 | 7.19 | 5.75 | 2.86 | –
9 | CC(=O)Nc1ccc(-c2ccnc(Nc3cccc(N4CCOCC4)c3)n2)cc1 | – | – | – | – | – | – | – | – | 19.6 | – | – | – | – | – | – | – | – | –
10 | O=C(Nc1ccc(-c2ccnc(Nc3ccc(N4CCOCC4)cc3)n2)cc1)[C@@H]1CCCN1 | 14900 | 9670 | 27200 | – | – | – | – | 7340 | – | – | – | – | – | – | – | – | – | –
